How the values were obtained:
CDK6/cyclinD3 = target: T1, CDK6/cyclinD3 (Homo sapiens, UniProt Q00534); assay: Inhibition of CDK enzyme activity (ADP-Glo kinase assay); type: biochemical; settings: 10 uM ATP, histone H1 substrate; read-out: IC50 CDK6/cyclinD
T1 construct: purchased Merck Millipore
Protocol: (§1) Test compounds were prepared by dissolving the compounds obtained in the above Examples in dimethylsulfoxide (DMSO) at a concentration of 10 mM. The test compounds were diluted to 200 nM, 50 nM, […], 3.13 nM, 0.78 nM, and 0.2 nM and used in an enzyme reaction.
(§2) CDK enzyme reaction was conducted in a buffer containing 50 mM Tris-HCl (pH 7.5), 10 mM MgCl2, 1 mM EGTA, 1 mM EDTA, and 2 mM DTT. CDK1/cyclinB, CDK2/cylcinE, CDK5/p25, and CDK6/cyclinD3 enzymes commercially available from Merck Millipore were used for CDK1, CDK2, CDK5, and CDK6 enzymes, respectively, and CDK4/cyclinD1 enzyme commercially available from Signalchem (US) was used for CDK4. For CDK1, a reaction proceeded by adding 10 nM CDK1/cyclinB and 0.125 mg/ml histone H1 (Merck Millipore) substrate to the buffer and then adding 10 uM ATP thereto. For CDK2, a reaction was proceeded by adding 10 nM CDK2/cyclinE and 0.125 mg/ml histone H1 substrate to the buffer and then adding 10 uM ATP thereto. For CDK5, a reaction was proceeded by adding 10 nM CDK5/p25 and 0.125 mg/ml histone H1 substrate to the buffer and then adding 10 uM ATP thereto. For CDK4, a reaction was proceeded by adding 20 nM CDK4/cyclinD1 and 0.125 mg/ml Rb protein (Merck Millipore) to the buffer and then adding 10 uM ATP thereto. For CDK6, a reaction was proceeded by adding 50 nM CDK6/cyclinD3 and 0.125 mg/ml histone H1 substrate to the buffer and then adding 10 uM ATP thereto. Each enzyme reaction was incubated at 30° C. for 60 min. Then, the amount of ADP produced was measured using Victor X4 instrument (Perkin Elmer) after generating luminescence using ADP-Glo kinase assay kit (Promega, US). An inhibition effect on each enzyme was represented as a percentage of the luminescence value in the presence of the test compounds relative to the luminescence value without the test compounds. IC50 (nM) is the concentration of the compound to inhibit 50% of the enzyme activity.

CDK4/cyclinD1 = target: T2, CDK4/cyclinD1 (Homo sapiens, UniProt P11802); assay: as above; type: biochemical; settings: 10 uM ATP, Rb protein substrate; read-out: IC50 CDK4/cyclinD
T2 construct: purchased Signalchem (US)
Protocol: as §1, §2

CDK5/p25 = target: T3, CDK5/p25 (Homo sapiens, UniProt Q00535); assay: as above; type: biochemical; settings: 10 uM ATP, histone H1 substrate
T3 construct: purchased Merck Millipore
Protocol: as §1, §2

CDK2/cyclinE = target: T4, CDK2/cyclinE (Homo sapiens, UniProt P24941); assay: as above; type: biochemical; settings: 10 uM ATP, histone H1 substrate
T4 construct: purchased Merck Millipore
Protocol: as §1, §2

CDK1/cyclinB = target: T5, CDK1/cyclinB (Homo sapiens, UniProt P06493); assay: as above; type: biochemical; settings: 10 uM ATP, histone H1 substrate
T5 construct: purchased Merck Millipore
Protocol: as §1, §2

HCT116 = assay: Inhibition of cancer cell proliferation (MTT); type: cell-based, human
NCI-H23 = assay: Inhibition of cancer cell proliferation (MTT); type: cell-based, human
How it was run: (§3)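 72 h MTT proliferation assay; cells seeded at 3000/well (A549, SK-N-SH, SH-SY5Y, NCI-H23) and attached 16 h at 37 °C, then treated at 0.004–10 uM with 0.08% DMSO control. Absorbance at 535 nm read after 2 h MTT; GI50 from viability relative to untreated control.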

A549 = assay: Inhibition of cancer cell proliferation (MTT); type: cell-based, human
How it was run: as §3

T98G = assay: Inhibition of cancer cell proliferation (MTT); type: cell-based, human
How it was run: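 Plate 3000 cells/well and let them adhere for 16 h. Add compound (0.004, 0.013, 0.04, 0.12, 0.37, 1.1, 3.3, 10 uM; 0.08% DMSO) and culture for 72 h. Add MTT for 2 h, dissolve formazan in DMSO, read at 535 nm, and fit GI50.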

U-87MG = assay: Inhibition of cancer cell proliferation (MTT); type: cell-based, human
How it was run: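 Absorbance at 535 nm of DMSO-dissolved formazan (2 h MTT) gives viability versus 0.08% DMSO-treated cells, and GI50 is derived from eight concentrations between 0.004 and 10 uM. Exposure lasts 72 h at 37 °C, 5% CO2, using 3000 cells/well in 10% FBS medium ([…] for NCI-H23, otherwise DMEM).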

SH-SY5Y = assay: Inhibition of cancer cell proliferation (MTT); type: cell-based, human
How it was run: as §3

SK-N-SH = assay: Inhibition of cancer cell proliferation (MTT); type: cell-based, human
How it was run: as §3

T3 sequence (Q00535 whole entry): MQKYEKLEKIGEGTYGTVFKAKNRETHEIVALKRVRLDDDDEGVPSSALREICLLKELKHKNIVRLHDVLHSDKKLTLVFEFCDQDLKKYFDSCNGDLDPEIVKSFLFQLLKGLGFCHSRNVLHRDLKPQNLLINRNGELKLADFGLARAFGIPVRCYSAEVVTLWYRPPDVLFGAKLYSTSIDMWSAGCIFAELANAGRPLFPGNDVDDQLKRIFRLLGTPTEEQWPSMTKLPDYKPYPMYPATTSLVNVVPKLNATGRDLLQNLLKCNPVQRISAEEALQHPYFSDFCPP
T3 sequence (Q15078 99-307 partner limits assumed): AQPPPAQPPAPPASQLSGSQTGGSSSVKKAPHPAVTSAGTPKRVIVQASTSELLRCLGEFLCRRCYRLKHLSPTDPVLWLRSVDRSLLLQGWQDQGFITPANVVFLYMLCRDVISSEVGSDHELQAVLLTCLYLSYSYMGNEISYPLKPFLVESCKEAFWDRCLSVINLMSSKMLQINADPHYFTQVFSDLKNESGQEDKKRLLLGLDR
T5 sequence (P06493 whole entry): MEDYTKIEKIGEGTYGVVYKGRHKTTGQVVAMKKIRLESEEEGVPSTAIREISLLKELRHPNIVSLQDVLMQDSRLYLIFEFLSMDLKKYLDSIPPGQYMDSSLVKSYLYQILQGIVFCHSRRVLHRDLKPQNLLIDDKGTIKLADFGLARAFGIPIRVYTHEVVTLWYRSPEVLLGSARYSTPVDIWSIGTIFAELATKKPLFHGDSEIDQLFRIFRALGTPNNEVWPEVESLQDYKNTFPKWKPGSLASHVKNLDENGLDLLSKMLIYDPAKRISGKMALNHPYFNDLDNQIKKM
T5 sequence (P14635 whole entry partner): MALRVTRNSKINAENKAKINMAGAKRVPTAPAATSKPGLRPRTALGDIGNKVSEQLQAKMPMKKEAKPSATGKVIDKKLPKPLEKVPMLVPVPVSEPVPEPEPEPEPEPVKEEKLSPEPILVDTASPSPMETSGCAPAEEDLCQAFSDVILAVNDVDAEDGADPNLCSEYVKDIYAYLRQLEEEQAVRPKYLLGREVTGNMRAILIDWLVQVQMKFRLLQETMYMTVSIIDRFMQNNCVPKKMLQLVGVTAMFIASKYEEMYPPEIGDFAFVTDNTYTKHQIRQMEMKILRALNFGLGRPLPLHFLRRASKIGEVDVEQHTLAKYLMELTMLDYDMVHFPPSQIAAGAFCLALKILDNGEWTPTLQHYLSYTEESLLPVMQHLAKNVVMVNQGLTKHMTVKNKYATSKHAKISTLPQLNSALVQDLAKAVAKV
T2 sequence (P11802 whole entry): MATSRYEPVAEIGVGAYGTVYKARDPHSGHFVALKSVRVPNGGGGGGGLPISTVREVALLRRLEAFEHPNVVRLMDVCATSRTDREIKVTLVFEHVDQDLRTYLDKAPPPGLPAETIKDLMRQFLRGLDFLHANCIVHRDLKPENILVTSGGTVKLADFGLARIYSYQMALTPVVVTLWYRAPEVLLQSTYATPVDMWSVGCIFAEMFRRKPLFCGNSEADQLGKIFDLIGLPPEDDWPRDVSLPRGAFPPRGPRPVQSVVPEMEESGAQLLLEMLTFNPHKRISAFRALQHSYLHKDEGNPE
T2 sequence (P24385 whole entry partner): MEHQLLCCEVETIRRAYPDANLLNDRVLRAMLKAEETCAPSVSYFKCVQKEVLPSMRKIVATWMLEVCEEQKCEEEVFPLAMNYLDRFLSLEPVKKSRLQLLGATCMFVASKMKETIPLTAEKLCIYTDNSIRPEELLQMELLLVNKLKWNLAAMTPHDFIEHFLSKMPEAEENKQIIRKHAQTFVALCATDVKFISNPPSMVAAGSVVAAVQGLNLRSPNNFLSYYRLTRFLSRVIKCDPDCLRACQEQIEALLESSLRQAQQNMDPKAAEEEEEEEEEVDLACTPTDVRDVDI
T1 sequence (Q00534 whole entry): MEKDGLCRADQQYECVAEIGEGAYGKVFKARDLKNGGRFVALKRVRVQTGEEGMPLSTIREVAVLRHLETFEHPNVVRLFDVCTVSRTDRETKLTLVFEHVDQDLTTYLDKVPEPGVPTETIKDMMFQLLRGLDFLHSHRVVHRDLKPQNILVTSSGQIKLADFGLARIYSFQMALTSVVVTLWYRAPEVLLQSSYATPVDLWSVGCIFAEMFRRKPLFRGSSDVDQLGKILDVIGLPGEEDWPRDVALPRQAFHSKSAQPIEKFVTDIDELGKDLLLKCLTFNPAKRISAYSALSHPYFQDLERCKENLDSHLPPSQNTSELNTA
T1 sequence (P30281 whole entry partner): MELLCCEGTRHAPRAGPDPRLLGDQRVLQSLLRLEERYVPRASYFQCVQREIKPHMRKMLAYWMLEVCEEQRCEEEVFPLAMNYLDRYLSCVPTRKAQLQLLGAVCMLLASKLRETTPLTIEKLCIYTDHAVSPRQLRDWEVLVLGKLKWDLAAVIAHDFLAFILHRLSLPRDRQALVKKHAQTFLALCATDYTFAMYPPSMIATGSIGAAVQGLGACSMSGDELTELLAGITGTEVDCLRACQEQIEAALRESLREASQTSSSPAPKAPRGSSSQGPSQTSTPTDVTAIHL

Compound	IC50 (CDK6/cyclinD3)	IC50 (CDK4/cyclinD1)	IC50 (CDK5/p25)	IC50 (CDK2/cyclinE)	IC50 (CDK1/cyclinB)	GI50 (HCT116; Homo sapiens, HCT-116, 72 h)	GI50 (NCI-H23; Homo sapiens, NCI-H23, 72 h)	GI50 (A549; Homo sapiens, A549, 72 h)	GI50 (T98G; Homo sapiens, T98G, 72 h)	GI50 (U-87MG; Homo sapiens, U-87 MG, 72 h)	GI50 (SH-SY5Y; Homo sapiens, SH-SY5Y, 72 h)	GI50 (SK-N-SH; Homo sapiens, SK-N-SH, 72 h)	GI50 (HCT116; 72 hrs)	GI50 (SH-SY5Y; 72 hrs)	GI50 (SK-N-SH; 72 hrs)	GI50 (U-87MG; 72 hrs)	GI50 (NCI-H23; 72 hrs)	GI50 (T98G; 72 hrs)	GI50 (A549; 72 hrs)
CC(C)c1cc(-c2nc(-c3ccnc(N)c3F)ccc2O)nc(N)n1 [Example 31, 2′-amino-6-(2-amino-6-isopropylpyrimidin-4-yl)-3′-fluoro-[2,4′-bipyridin]-5-ol]	61.5 nM	35.9 nM	3.13 nM	0.59 nM	2.3 nM	30 nM	100 nM	180 nM	–	–	–	–	–	–	–	–	–	–	–
Nc1nc(-c2nc(-c3ccnc(N)c3F)ccc2O)cc(N2CCOCC2)n1 [Example 51, 2′-amino-6-(2-amino-6-morpholinopyrimidin-4-yl)-3′-fluoro-[2,4′-bipyridin]-5-ol]	35.8 nM	81.3 nM	2.8 nM	4.5 nM	1 nM	3 nM	10 nM	10 nM	10 nM	10 nM	–	–	–	–	–	–	–	–	–
CN1CCN(c2cc(-c3nc(-c4ccnc(N)c4F)ccc3O)nc(N)n2)CC1 [Example 53, 2′-amino-6-(2-amino-6-(4-methylpiperazin-1-yl)pyrimidin-4-yl)-3′-fluoro-[2,4′-bipyridin]-5-ol]	86.8 nM	> 200 nM	2.8 nM	10.8 nM	4 nM	10 nM	40 nM	20 nM	–	30 nM	–	–	–	–	–	–	–	–	–
Nc1nccc(-c2nc(-c3ccc(O)c(F)c3F)ccc2O)n1 [Example 20, 2-(2-aminopyrimidin-4-yl)-6-(2,3-difluoro-4-hydroxyphenyl)pyridin-3-ol]	–	–	–	–	–	520 nM	–	–	4310 nM	1180 nM	190 nM	390 nM	–	–	–	–	–	–	–
Nc1nccc(-c2nc(-c3ccnc(N)c3F)ccc2O)n1 [Example 68, 2′-amino-6-(2-aminopyrimidin-4-yl)-3′-fluoro-[2,4′-bipyridin]-5-oloxalate]	–	–	–	–	–	–	–	–	–	–	–	–	10 nM	10 nM	30 nM	100 nM	–	–	–
Nc1nccc(-c2nc(-c3ccnc(N)c3F)ccc2O)n1 [Example 69, 2′-amino-6-(2-aminopyrimidin-4-yl)-3′-fluoro-[2,4′-bipyridin]-5-ol 2malonate]	–	–	–	–	–	–	–	–	–	–	–	–	80 nM	4 nM	20 nM	90 nM	–	–	–
CC(C)c1cnc(N)nc1-c1nc(-c2ccnc(N)c2F)ccc1O [Example 104]	54.1 nM	15.2 nM	0.8 nM	1.6 nM	1.3 nM	–	–	–	–	–	–	–	30 nM	–	–	70 nM	80 nM	50 nM	80 nM

Reference: patent US20200190062A1, “HETEROCYCLIC COMPOUND AND PHARMACEUTICAL COMPOSITION COMPRISING SAME” (BEYONDBIO INC., priority 2015, published 2020)
